Measurements taken from publication PMC9020739, “Identification of a two-component regulatory system involved in antimicrobial peptide resistance in Streptococcus pneumoniae” (PLoS Pathogens, 2022).
Where a SMILES comes first, the peptide text is derived from it. Bridges are numbered along the chain shown (N, C = ends). [ ]: non-standard residue; d: D form. The star is where a group is joined. X1 = CC[C@H](C)CCCCC(=O)*; Dab = NCC[C@H](N)C(=O)O

How the values were obtained:
[1] = target: BceAB transporter from S. pneumoniae (Streptococcus pneumoniae, UniProt A0A0H2ZN40); format: biochemical; settings: for nH (positive cooperativity): ATPase/GTPase activity as a function of nucleotide concentration, fitted with positive cooperativity, proteoliposomes
Experimental: E. coli BL21(DE3) cells were transformed with pRSF-Duet1-BceAB WT, K48A or E170Q and selected on LB-agar plates containing 50 μg/mL kanamycin. One colony was inoculated into in 2L-baffled flasks containing 500 mL of 2YT medium and 50 μg/mL kanamycin and grown at 37°C, 180 rpm to OD600 of 0.6. Protein expression was induced by adding IPTG to a final concentration of 1 mM. Induction was performed overnight at 25°C and cells were harvested by centrifugation at 7,000 g for 20 min.
Cells were resuspended in buffer A (HEPES-NaOH 100 mM pH 8.0, NaCl 150 mM) and lysed by passaging them three times through a cell disruptor (Microfluidizer, Microfluidics) at 18,000 psi (or 1,24 x 108 Pa). Undisrupted cells and cell debris were removed by centrifugation at 15,000 x g for 30 min at 4°C. Membranes were harvested from the supernatant after ultracentrifugation at 150,000 x g for 1 h at 4°C. Membranes were resuspended in 20 mL of buffer A and centrifuged once again at 150,000 x g for 1 h at 4°C. Membrane pellets were homogenized in buffer HEPES-NaOH 100 mM pH 8.0, NaCl 150 mM and 20% glycerol, and stored at -80°C.
For the purification of BceAB, membranes from 0,5 L cell culture were diluted in buffer B (100 mM d’HEPES-NaOH pH 8, 150 mM NaCl, 10% glycerol) to a protein concentration of 4 mg/mL and solubilized with 0.5% (w/v) LMNG for 2 h at 4°C. After ultracentrifugation at 150,000 x g for 1 h at 4°C, the supernatant containing solubilized proteins was diluted four times using buffer B and loaded on Ni^2+-charged immobilized metal-ion affinity chromatography (IMAC) column (1 mL HisTrap HP, Cytiva). The column was washed with 10 mL of buffer B containing 0.005% (w/v) LMNG and 20 mM of imidazole. The column was further washed with the same buffer until OD280nm reached basal levels. BceAB was eluted by buffer B containing 0.005% (w/v) LMNG and an imidazole gradient from 20 to 500 mM of imidazole. Purified BceAB was dialyzed into buffer B containing 0.005% (w/v) LMNG and stored at -80°C.
The proteoliposomes were prepared as previously described for the transporter BmrA [50]. Proteoliposomes were loaded on sucrose gradient with different layers of 400 μL of 50 mM HEPES-KOH pH 8.0 buffer containing 30, 20, 15 or 10% of sucrose. One mL of proteoliposomes was loaded on the top of the sucrose gradient and ultra-centrifuged at 200,000 x g for 12 h at 4°C. Proteoliposomes were typically collected from the 15% layer and were loaded on SDS-PAGE to analyze and quantify the presence of BceAB by using a standard-curve of purified BceAB and ImageJ.
These activities were performed as previously described.

S. pneumoniae R6 ΔbceAB = format: cell-based, Streptococcus pneumoniae; settings: R6 strain; 2-fold broth dilution, Todd-Hewitt medium, 37°C, 15 h; two to four biological replicates, each technical duplicates
Experimental: (§1) The MIC of various antimicrobial peptides for R6, R800 and D39 strains was determined by classical 2-fold broth dilution method. Cells were first grown in Todd-Hewitt medium at 37°C without agitation and in anaerobic conditions until the absorbance reaches approximatively 0.3. Complementation strains were grown with 0.5 μM ComS inducer until the appropriate OD. Cells were then diluted at final OD600nm = 0.002 in 96-well plates containing 300 μL of Todd-Hewitt medium (and 2 μM ComS inducer for the complementation strains) with serial dilutions of antimicrobial peptides. Pneumococcal growth was monitored by a microplate reader (TECAN) at 37°C without agitation. The absorbance was followed at 600 nm every 15 min for 15 h.

S. pneumoniae R6 Δtcs01 = format: cell-based, Streptococcus pneumoniae; settings: R6 strain; 2-fold broth dilution, Todd-Hewitt medium, 37°C, 15 h; two to four biological replicates, each technical duplicates
Experimental: as §1

[2] = tested on: S. pneumoniae R6 ΔbceAB/tcs01; format: cell-based, Streptococcus pneumoniae; settings: R6 strain; 2-fold broth dilution, Todd-Hewitt medium, 37°C, 15 h; two to four biological replicates, each technical duplicates
Experimental: as §1

S. pneumoniae R6 WT = format: cell-based, Streptococcus pneumoniae; settings: R6 strain; for Minimum Inhibitory Concentration, WT: 2-fold broth dilution, Todd-Hewitt medium, 96-well plates, start OD600 0.002, 37°C, A600 followed 15 h, two to four biological replicates, each technical duplicates; for Fold sensitivity displayed by the KO strains: KO strains versus WT MIC
Experimental: as §1

[3] = tested on: S. pneumoniae R800 Δhk01-PcomX-hk01; format: cell-based, Streptococcus pneumoniae; settings: R800 complementation strain, 2 μM ComS inducer; 2-fold broth dilution, Todd-Hewitt medium, 37°C, 15 h; at least biological triplicates, each technical duplicates
Experimental: as §1

[4] = tested on: S. pneumoniae D39 ΔbceAB/tcs01; format: cell-based, Streptococcus pneumoniae; settings: D39 strain; 2-fold broth dilution, Todd-Hewitt medium, 37°C, 15 h; two to four biological replicates, each technical duplicates
Experimental: as §1

S. pneumoniae D39 ΔbceAB = format: cell-based, Streptococcus pneumoniae; settings: D39 strain; 2-fold broth dilution, Todd-Hewitt medium, 37°C, 15 h; two to four biological replicates, each technical duplicates
Experimental: as §1

S. pneumoniae R800 Δhk01 = format: cell-based, Streptococcus pneumoniae; settings: R800 strain; 2-fold broth dilution, Todd-Hewitt medium, 37°C, 15 h; at least biological triplicates, each technical duplicates
Experimental: as §1

[5] = tested on: S. pneumoniae R800 ΔbceAB-Δhk01-PcomX-hk01; format: cell-based, Streptococcus pneumoniae; settings: R800 complementation strain, 2 μM ComS inducer; 2-fold broth dilution, Todd-Hewitt medium, 37°C, 15 h; at least biological triplicates, each technical duplicates
Experimental: as §1

S. pneumoniae D39 Δtcs01 = format: cell-based, Streptococcus pneumoniae; settings: D39 strain; 2-fold broth dilution, Todd-Hewitt medium, 37°C, 15 h; two to four biological replicates, each technical duplicates
Experimental: as §1

S. pneumoniae R800 WT = format: cell-based, Streptococcus pneumoniae; settings: R800 strain; 2-fold broth dilution, Todd-Hewitt medium, 37°C, 15 h; at least biological triplicates, each technical duplicates
Experimental: as §1

S. pneumoniae D39 WT = format: cell-based, Streptococcus pneumoniae; settings: D39 strain; for Minimum Inhibitory Concentration, WT: 2-fold broth dilution, Todd-Hewitt medium, 37°C, 15 h, two to four biological replicates, each technical duplicates; for Fold sensitivity diplayed by the KO strains: KO strains versus WT MIC
Experimental: as §1

[6] = tested on: S. pneumoniae R800 ΔbceAB; format: cell-based, Streptococcus pneumoniae; settings: R800 strain; 2-fold broth dilution, Todd-Hewitt medium, 37°C, 15 h; at least biological triplicates, each technical duplicates
Experimental: as §1

[7] = tested on: S. pneumoniae R800 bceAB-gfp; format: cell-based, Streptococcus pneumoniae; settings: R800 strain; 2-fold broth dilution, Todd-Hewitt medium, 37°C, 15 h; at least biological triplicates, each technical duplicates
Experimental: as §1

Molecule | Minimum Inhibitory Concentration, ΔbceAB (S. pneumoniae R6 ΔbceAB) | Minimum Inhibitory Concentration, Δtcs01 (S. pneumoniae R6 Δtcs01) | Minimum Inhibitory Concentration, ΔbceAB/tcs01 [2] | Minimum Inhibitory Concentration, WT (S. pneumoniae R6 WT) | Fold sensitivity displayed by the KO strains (S. pneumoniae R6 WT) | further results
Nc1ncnc2c1ncn2[C@@H]1O[C@H](COP(=O)(O)OP(=O)(O)OP(=O)(O)O)[C@@H](O)[C@H]1O [ATP] |  |  |  |  |  | nH (positive cooperativity) [1]: 2.4
Nc1nc2c(ncn2[C@@H]2O[C@H](COP(=O)(O)OP(=O)(O)OP(=O)(O)O)[C@@H](O)[C@H]2O)c(=O)[nH]1 [GTP] |  |  |  |  |  | nH (positive cooperativity) [1]: 1.9
CC[C@H](C)CCCCC(=O)N[C@@H](CCN)C(=O)N[C@H](C(=O)N[C@@H](CCN)C(=O)N[C@H]1CCNC(=O)[C@H]([C@@H](C)O)NC(=O)[C@H](CCN)NC(=O)[C@H](CCN)NC(=O)[C@H](CC(C)C)NC(=O)[C@@H](CC(C)C)NC(=O)[C@H](CCN)NC1=O)[C@@H](C)O [colistin] (X1-[Dab]T[Dab][Dab][Dab][dL]L[Dab][Dab]T; lactam 4-C (inferred); N-terminus assumed) | 256 µg/mL | 256 µg/mL | 256 µg/mL | 256 µg/mL | 1 | 
CC[C@H](C)[C@H](N)C(=O)N[C@@H](CC(N)=O)C(=O)N[C@@H](CC(C)C)C(=O)N[C@@H](CCCCN)C(=O)N[C@@H](C)C(=O)N[C@@H](CC(C)C)C(=O)N[C@@H](C)C(=O)N[C@@H](C)C(=O)N[C@@H](CC(C)C)C(=O)N[C@@H](C)C(=O)N[C@@H](CCCCN)C(=O)N[C@@H](CCCCN)C(=O)N[C@H](C(=O)N[C@@H](CC(C)C)C(N)=O)[C@@H](C)CC [mastoporan] |  |  |  |  | 1 | 
Microbisporicin [Microbisporicin (NAI-107)] | 0.008 µg/mL | 0.008 µg/mL | 0.008 µg/mL | 0.032 µg/mL | 4 | 
Planosporicin [Planosporicin (NAI-97)] | 2 µg/mL | 2 µg/mL | 2 µg/mL | 16 µg/mL | 8 | 
actagardin | 2 µg/mL | 2 µg/mL | 2 µg/mL | 32 µg/mL | 16 | MIC, Δhk01-PcomX-hk01 [3]: 32 µg/mL; Minimum Inhibitory Concentration, ΔbceAB/tcs01 [4]: 2 µg/mL; Minimum Inhibitory Concentration, ΔbceAB (S. pneumoniae D39 ΔbceAB): 2 µg/mL; MIC, Δhk01 (S. pneumoniae R800 Δhk01): 4 µg/mL; MIC, ΔbceAB-Δhk01-PcomX-hk01 [5]: 4 µg/mL; Minimum Inhibitory Concentration, Δtcs01 (S. pneumoniae D39 Δtcs01): 2 µg/mL; MIC, WT (S. pneumoniae R800 WT): 32 µg/mL; Minimum Inhibitory Concentration, WT (S. pneumoniae D39 WT): 32 µg/mL; Fold sensitivity diplayed by the KO strains (S. pneumoniae D39 WT): 16; MIC, ΔbceAB [6]: 4 µg/mL; MIC, bceAB-gfp [7]: 32 µg/mL
gramicidin | 0.016 µg/mL | 0.016 µg/mL | 0.016 µg/mL | 0.016 µg/mL | 1 | 
ramoplanin | 0.02 µg/mL | 0.02 µg/mL | 0.02 µg/mL | 0.02 µg/mL | 1 | Effect on ATPase activity of BceAB ([1]; BceAB proteoliposomes, Fig 7B, triplicates, representative of at least two experiments): clear inhibitory effect; MIC, Δhk01-PcomX-hk01 [3]: 0.02 µg/mL; Minimum Inhibitory Concentration, ΔbceAB/tcs01 [4]: 0.03 µg/mL; Minimum Inhibitory Concentration, ΔbceAB (S. pneumoniae D39 ΔbceAB): 0.03 µg/mL; MIC, Δhk01 (S. pneumoniae R800 Δhk01): 0.02 µg/mL; MIC, ΔbceAB-Δhk01-PcomX-hk01 [5]: 0.02 µg/mL; Minimum Inhibitory Concentration, Δtcs01 (S. pneumoniae D39 Δtcs01): 0.03 µg/mL; MIC, WT (S. pneumoniae R800 WT): 0.02 µg/mL; Minimum Inhibitory Concentration, WT (S. pneumoniae D39 WT): 0.03 µg/mL; Fold sensitivity diplayed by the KO strains (S. pneumoniae D39 WT): 1; MIC, ΔbceAB [6]: 0.02 µg/mL; MIC, bceAB-gfp [7]: 0.02 µg/mL
